Assay results taken from PMC11192564 (Cell metabolism, 2023).

Assays:
Samtor [1] = biological target: T1, Samtor (Mus musculus, UniProt Q8BXK4); test: microscale thermophoresis; format: binding
T1 sequence (Q8BXK4 1-403): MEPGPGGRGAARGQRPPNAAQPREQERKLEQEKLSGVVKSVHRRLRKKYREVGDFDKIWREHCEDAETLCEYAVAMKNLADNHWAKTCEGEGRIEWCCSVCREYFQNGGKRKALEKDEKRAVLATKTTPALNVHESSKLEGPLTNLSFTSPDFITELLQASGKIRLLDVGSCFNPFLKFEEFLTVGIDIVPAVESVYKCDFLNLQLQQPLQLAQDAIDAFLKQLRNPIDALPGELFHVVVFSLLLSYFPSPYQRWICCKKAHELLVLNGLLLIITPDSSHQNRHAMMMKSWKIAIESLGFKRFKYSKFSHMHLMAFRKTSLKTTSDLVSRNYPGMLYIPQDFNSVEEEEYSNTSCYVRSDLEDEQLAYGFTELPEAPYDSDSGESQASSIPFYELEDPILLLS

SAMTOR [2] = biological target: T2, SAMTOR (Homo sapiens, UniProt Q1RMZ1); test: microscale thermophoresis; format: binding
T2 sequence (Q1RMZ1 1-405): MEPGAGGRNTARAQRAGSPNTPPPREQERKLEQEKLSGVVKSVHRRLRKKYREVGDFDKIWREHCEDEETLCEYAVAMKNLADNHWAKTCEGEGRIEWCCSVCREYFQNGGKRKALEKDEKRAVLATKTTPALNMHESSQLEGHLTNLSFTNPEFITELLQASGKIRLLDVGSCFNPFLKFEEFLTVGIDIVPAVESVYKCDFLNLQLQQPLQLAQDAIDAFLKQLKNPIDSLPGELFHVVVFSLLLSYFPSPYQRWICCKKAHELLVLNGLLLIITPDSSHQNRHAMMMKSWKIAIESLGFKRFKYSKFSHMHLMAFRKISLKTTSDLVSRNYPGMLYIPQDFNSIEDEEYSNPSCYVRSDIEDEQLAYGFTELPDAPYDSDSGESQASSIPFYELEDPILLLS

C[S+](CC[C@H](N)C(=O)[O-])C[C@H]1O[C@@H](n2cnc3c(N)ncnc32)[C@H](O)[C@@H]1O (some centres unmarked) [SAM]
Kd (Samtor [1]): ~10 µM
Kd (SAMTOR [2]): ~7 µM
